Legend:
rat AIA model = assay: In vivo adjuvant-induced arthritis (AIA) model
Experimental: Next, we evaluated the in vivo anti-arthritic effects of MPT0G009 in a rat AIA model. […] The inhibition of synoviocytes proliferation and inflammation by MPT0G009 treatment was also observed (Supplementary Figure 1).
Figure 5 MPT0G009 inhibits the development of arthritis in an AIA model. […] Subsequently, swelling of both hind paws was photographed. (b) Hind paw volumes in the indicated group of rats were measured using a digital plethysmometer on the indicated day after AIA induction. (c) Arthritis scores on day 21. (d) Serum levels of interleukin (IL)-1β (left panel) and IL-6 (right panel) on day 21 as measured by enzyme-linked immunosorbent assay (ELISA). (e) Top five rows: photomicrographs of ankle joint sections from the different groups stained with hematoxylin and eosin, safranin O, immunohistochemically stained with an anti-acetyl H3 antibody or TRAP stain. Arrows indicate osteoblasts (OB); arrowheads indicate osteoclasts (OC). Bottom panels: micro-CT results (arrows indicate bone erosion). (f) The BMD (in mg/mm^3) and the BMC (in mg) values for the bone tissue of the tarsus were analyzed using CT Analysis Software.
Five-week-old male Lewis rats were obtained from the National Laboratory Animal Center (Taipei, Taiwan). Complete Freund's adjuvant (CFA) was prepared by suspending heat-killed Mycobacterium butyricum (Difco, Sparks, MD, USA) in mineral oil at 3 mg/ml. CFA-induced arthritis was induced by intradermal injection of 100 μl of the CFA emulsion into the base of the right hind paw on day 0. […] On days 0, 2, 6, 9, 13, 17 and 21, the animals were weighed and both hind paw volumes measured using a digital plethysmometer (Diagnostic & Research Instruments Co. Ltd, Taipei, Taiwan). On day 21, micro-CT of the paws was performed by the Core Facilities Center of the National Research Program for Biopharmaceuticals using an in vivo micro-CT scanner (Skyscan 1176, Bruker Corp., Kontich, Belgium) at 18 μm resolution and 180° scanning with a rotation step of 0.8° per image, 300 ms integration time, 70 keV photon energy and 350 μA current. The reconstructed volumes from micro-CT scans were analyzed by CT Analysis Software (CTAn, Bruker Corp.). Quantification of volumetric BMD and bone volume (BV) was performed in a defined bone area ranging 12 mm from tarsals to the end of the calcaneus. The BMC was described by the product of BV and BMD. On day 21, the rats were killed and specimens from the phalanges and ankle joints stained with hematoxylin–eosin or safranin O for histopathological assessment by the National Laboratory Animal Center. Intensity of arthritis was scored as described previously from 0 to 4.[19] All four legs were scored, so the highest possible arthritic score was 16.

[1] = tested on: CD51/61 on RAW264.7 cells; assay: Osteoclast-specific marker CD51/61 by flow cytometry; conditions: RAW264.7, M-CSF/RANKL; 5 nM MPT0G009 or 50 nM SAHA
Experimental: Subsequently, multinucleate tartrate-resistant acid phosphatase (TRAP)-positive cells were counted.
Cells were then TRAP stained, and the numbers of TRAP-positive multinuclear cells were counted. […] Images are at × 100 magnification, and the arrows indicate differentiated osteoclasts.
Cells were then TRAP stained, and the numbers of TRAP-positive multinuclear cells were counted (d) or were incubated with a FITC-conjugated anti-CD51/61 antibody and analyzed by flow cytometry (e).
After three washes with FACS washing buffer, the fluorescence of the cells was analyzed on a FACScan flow cytometer (BD Biosciences).

[2] = tested on: HDACs in human RA fibroblast-like synoviocytes; assay: HDAC activity assay of cell lysates (RA-FLS); type: cell-based
Source text: We have synthesized 1-arylsulfonyl-5-(N-hydroxyacrylamide) indolines derivative HDAC inhibitors. […] In this study, we evaluated the anti-arthritic effects of MPT0G009 in vitro and in an in vivo model and determined the pharmacokinetics and its maximum tolerated dose (MTD).
Colorimetric HDAC activity kits were used to assay HDAC activity in cell lysates according to the manufacturer's instructions.

[3] = Pharmacokinetic evaluation in Sprague–Dawley rats; type: in vivo; conditions: male, plasma, rat
Experimental: The pharmokinetic parameters of MPT0G009 in rats after single-dose intravenous (i.v.) and oral administration are summarized in Table 2.
A 1–5 mg/ml dosing solution was preparing by dissolving appropriate amount compound in a mixture of PEG400/DMSO (80 : 20, v/v) for i.v. administration and 1% carboxylmethyl cellulose, 0.5% Tween 80 for oral dosing, respectively. Eight to 10-week-old male Sprague–Dawley rats were obtained from BioLASCO Corp. (Ilan, Taiwan), and tested compound was separately administered to group of rats (n=3 per group) i.v. (2 mg/kg dose) by a bolus injection to jugular vein or periorally (20 mg/kg dose). Blood sample (0.15 ml) from 0 h (before dosing) to 24 h was collected from each animal via the jugular vein cannula and stored in ice. Plasma was separated from the blood and centrifuged at 14 000 g for 30 min at 4 °C. All samples were analyzed for the test compound by LC-MS/MS (ABI4000; Applied Biosystems, Foster City, CA, USA). Data were acquired via multiple reactions monitoring. Plasma concentration data were analyzed with standard noncompartmental method.

RA-FLS = assay: Cell proliferation assay (SRB), RA-FLS; type: cell-based, human; conditions: 24 or 48 h
[4] = tested on: histone H3 acetylation in HIG-82 synoviocytes; assay: Western blot of acetyl histone H3, HIG-82 cells; type: cell-based, rabbit; conditions: 3 μM MPT0G009 or 60 μM SAHA, 6, 12 or 24 h, starting at 6 h
[5] = tested on: RA fibroblast-like synoviocyte (RA-FLS); assay: Inflammatory mediator production by stimulated RA-FLS; type: cell-based, human; conditions: MPT0G009 0.1, 1 or 10 μM, SAHA 0.3, 3 or 30 μM
Experimental: (a) Structure of MPT0G009.
These supernatants were then assayed for prostaglandin E2 (PGE2), NO and IL-6.

p21 in RA-FLS = assay: p21 expression in RA-FLS by flow cytometry
Experimental: After three washes with FACS washing buffer, the fluorescence of the cells was analyzed on a FACScan flow cytometer (BD Biosciences). […] They were then incubated for 30 min at room temperature with 0.2 ml of DNA extraction buffer (0.2 M Na2HPO4 and 0.1 M citric acid buffer, pH 7.8), resuspended in 1 ml of propidium iodide staining buffer (0.1% Triton X-100, 100 μg/ml of RNase A and 80 μg/ml of propidium iodide in PBS), incubated at 37 °C for 30 min in the dark, sorted by FACScan, and analyzed using CellQuest software (BD Biosciences).

[6] = day 21, ELISA, MPT0G009 25 mg/kg, SAHA 200 mg/kg, indomethacin 1 mg/kg
[7] = oral daily days 2 to 21, MPT0G009 25 mg/kg, SAHA 200 mg/kg, indomethacin 1 mg/kg, vs vehicle

In the case of `COc1ccc(S(=O)(=O)N2CCc3cc(C=CC(=O)NO)ccc32)cc1` [MPT0G009, 3-[1-(4-methoxybenzenesulfonyl)-2,3-dihydro-1H-indol-5-yl]-N-hydroxyacrylamide], the “cartilage degradation (safranin O staining of ankle joints)” value (rat AIA model; 25 mg/kg) was “markedly reduced”, the “formation of osteoclasts (TRAP stain)” value (rat AIA model; 25 mg/kg) was “significantly decreased” and the “leukocyte infiltration, synovitis (hematoxylin and eosin staining)” value (rat AIA model; 25 mg/kg) was “significantly reduced”. For the same molecule, the “levels of acetyl-histone H3 (immunohistochemical staining)” value (rat AIA model; 25 mg/kg) was “increased levels”, the “bone destruction (micro-CT)” value (rat AIA model; 25 mg/kg, day 21) was “ameliorated” and the “bone mineral content (BMC)” value (rat AIA model; 25 mg/kg, tarsus, micro-CT) was “prevented the decrease”. For the same molecule, the “bone mineral density (BMD)” value (rat AIA model; 25 mg/kg, tarsus, micro-CT) was “prevented the decrease”, the “serum levels of IL-1β” value (rat AIA model; [6]) was “significant decreases” and the “serum levels of IL-6” value (rat AIA model; [6]) was “significant decreases”. For the same molecule, the arthritis scores (rat AIA model; day 21, MPT0G009 25 mg/kg, SAHA 200 mg/kg, indomethacin 1 mg/kg, vs vehicle) was “significant reductions”, the paw swelling (rat AIA model; [7]) was “significant reductions” and the paw volume (rat AIA model; [7]) was “significant reductions”. The “expression of the osteoclast-specific marker (CD51/61)” value [1] was “significantly inhibited”, the “potency relative to SAHA on HDACs inhibition” value [2] was > 10 times and the AUC(0-inf) ([3]; iv, i.v. 2 mg/kg) was 665 ng·h/mL. For the same molecule, the Vd ([3]; iv, i.v. 2 mg/kg) was 25.2 L/kg, the clearance ([3]; iv, i.v. 2 mg/kg) was 85.3 mL/min/kg and the half-life ([3]; iv, i.v. 2 mg/kg) was 6.74 h. The AUC(0-inf) ([3]; po, p.o. 20 mg/kg) was 1260 ng·h/mL, the Cmax ([3]; po, p.o. 20 mg/kg) was 221 ng/mL and the Tmax ([3]; po, p.o. 20 mg/kg) was 3.43 h. The half-life ([3]; po, p.o. 20 mg/kg) was 9.53 h, the bioavailability ([3]; po, p.o. 20 mg/kg, read-out: F (oral bioavailability)) was 13% and the anti-proliferative effect (RA-FLS) was “concentration-dependent anti-proliferative effects”. The “acetylation of histone H3 (Acetyl-H3)” value [4] was “significant hyperacetylation”, the IL-6 production ([5]; IL-1β 10 ng/ml 24 h) was “inhibited” and the PGE2 production ([5]; LPS 25 ng/ml 24 h) was “inhibited”. For the same molecule, the “expression of p21” value (p21 in RA-FLS; RA-FLS 24 h, 1 μM MPT0G009 or 3 μM SAHA, flow cytometry or western blot) was “significantly increased” and the “p21 (flow cytometry)” value (p21 in RA-FLS; RA-FLS, 1 μM, 24 h, Figure 1h) was 94.71%.

Reference: publication PMC5424110, “Preclinical anti-arthritic study and pharmacokinetic properties of a potent histone deacetylase inhibitor MPT0G009” (Cell Death & Disease, 2014)
